The source of these data is patent US7253187B2, “Heterocyclic inhibitors of ERK2 and uses thereof” (Vertex Pharmaceuticals Incorporated, priority 2001, dated 2007).

One experiment has as its target T1, GSK-3β (AA 1–420) (Homo sapiens, UniProt P49841).
T1 construct: GSK-3β (AA 1–420)
The experiment in a line: GSK-3 inhibition assay (coupled enzyme system). It counts as biochemical. To be noted: read-out: GSK3 Inhibitory Activity (Ki class). As to the method: Final substrate concentrations in the assay were 20 μM ATP (Sigma Chemicals, St Louis, Mo.) and 300 μM peptide (HSSPHQS(PO3H2)EDEEE, American Peptide, Sunnyvale, Calif.). Reactions were carried out at 30° C. and 20 nM GSK-3β. Final concentrations of the components of the coupled enzyme system were 2.5 mM phosphoenolpyruvate, 300 μM NADH, 30 μg/ml pyruvate kinase and 10 μg/ml lactate dehydrogenase.
An assay stock buffer solution was prepared containing all of the reagents listed above with the exception of ATP and the test compound of interest. The assay stock buffer'solution (175 μl) was incubated in a 96 well plate with 5 μl of the test compound of interest at final concentrations spanning 0.002 μM to 30 μM at 30° C. for 10 min. […] The reaction was initiated by the addition of 20 μl of ATP (final concentration 20 μM). Rates of reaction were obtained using a Molecular Devices Spectramax plate reader (Sunnyvale, Calif.) over 10 min at 30° C. The Ki values were determined from the rate data as a function of inhibitor concentration.
The compound numbers correspond to the compound numbers in Table 1.

In the next experiment the target is ERK2 (Homo sapiens, UniProt P28482). Nature of the experiment: ERK2 inhibition assay (spectrophotometric coupled-enzyme assay). To be noted: read-out: ERK2 Inhibitory Activity (Ki class D-F). The class given is biochemical. As to the method:
The IC50 was evaluated from the rate data as a function of inhibitor concentration. […] The compound numbers correspond to the compound numbers in Table 1.

Structures are written as SMILES.

T1 sequence (P49841 whole entry, species assumed, the tested form may be a part): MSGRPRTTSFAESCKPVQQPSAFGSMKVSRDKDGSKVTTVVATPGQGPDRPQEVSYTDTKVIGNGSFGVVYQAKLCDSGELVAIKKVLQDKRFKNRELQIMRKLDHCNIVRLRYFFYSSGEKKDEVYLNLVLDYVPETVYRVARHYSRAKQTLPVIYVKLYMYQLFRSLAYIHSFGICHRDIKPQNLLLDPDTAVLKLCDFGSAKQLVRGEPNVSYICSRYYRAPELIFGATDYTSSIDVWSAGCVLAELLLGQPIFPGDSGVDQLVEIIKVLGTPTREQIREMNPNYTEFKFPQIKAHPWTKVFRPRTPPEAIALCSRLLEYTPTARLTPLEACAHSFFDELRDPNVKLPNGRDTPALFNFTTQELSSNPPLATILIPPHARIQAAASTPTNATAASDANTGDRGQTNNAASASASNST
ERK2, sequence (P28482 whole entry): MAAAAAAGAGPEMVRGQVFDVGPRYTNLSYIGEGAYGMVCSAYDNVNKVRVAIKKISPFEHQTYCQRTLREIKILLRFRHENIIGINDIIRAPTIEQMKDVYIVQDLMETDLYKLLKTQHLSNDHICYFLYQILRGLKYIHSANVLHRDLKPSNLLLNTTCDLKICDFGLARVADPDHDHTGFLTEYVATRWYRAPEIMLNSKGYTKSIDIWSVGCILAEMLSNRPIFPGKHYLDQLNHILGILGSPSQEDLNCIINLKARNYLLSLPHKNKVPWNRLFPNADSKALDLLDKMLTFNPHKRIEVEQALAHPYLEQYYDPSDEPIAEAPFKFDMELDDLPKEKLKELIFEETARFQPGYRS

Regarding `Cc1cnc(NC(CO)CC2CC2)nc1-c1c[nH]c(C(=O)NC(CO)c2ccccc2)c1` (centres unmarked) [III-a-193, 4-[2-(2-Cyclopropyl-1-hydroxymethyl-ethylamino)-5-methyl-pyrimidin-4-yl]-1H-pyrrole-2-carboxylic acid (2-hydroxy-1-phenyl-ethyl)-amide], the inhibition constant (Ki) on GSK-3β (AA 1–420) is 100 to 1000 nM; on ERK2, < 100 nM.
As to `Cc1cnc(Nc2cccc(C)c2C)nc1-c1c[nH]c(C(=O)NC(CO)c2ccccc2)c1` (centres unmarked) [III-a-194, 4-[2-(2,3-Dimethyl-phenylamino)-5-methyl-pyrimidin-4-yl]-1H-pyrrole-2-carboxylic acid (2-hydroxy-1-phenyl-ethyl)-amide], the Ki at GSK-3β (AA 1–420) and on ERK2 was < 100 nM each time.
Take `Cc1cnc(NC(CO)C(C)C)nc1-c1c[nH]c(C(=O)NC(CO)c2ccccc2)c1` (centres unmarked) [III-a-196, 4-[2-(1-Hydroxymethyl-2-methyl-propylamino)-5-methyl-pyrimidin-4-yl]-1H-pyrrole-2-carboxylic acid (2-hydroxy-1-phenyl-ethyl)-amide]: the Ki on GSK-3β (AA 1–420) was > 1000 nM; at ERK2, < 100 nM.
For `CCNc1ncc(C)c(-c2c[nH]c(C(=O)NC(CO)c3cccc(C(F)(F)F)c3)c2)n1` (centres unmarked) [III-a-198, 4-(2-Ethylamino-5-methyl-pyrimidin-4-yl)-1H-pyrrole-2-carboxylic acid [2-hydroxy-1-(3-trifluoromethyl-phenyl)-ethyl]-amide], the values for the Ki at GSK-3β (AA 1–420) and on ERK2 were > 1000 nM and < 100 nM, respectively.
For `Cc1cnc(Nc2cccc(F)c2)nc1-c1c[nH]c(C(=O)NC(CO)c2cccc(C(F)(F)F)c2)c1` (centres unmarked) [III-a-199, 4-[2-(3-Fluoro-phenylamino)-5-methyl-pyrimidin-4-yl]-1H-pyrrole-2-carboxylic acid [2-hydroxy-1-(3-trifluoromethyl-phenyl)-ethyl]-amide], in that order: < 100 nM and < 100 nM.
For `Cc1cnc(Nc2ccccc2Cl)nc1-c1c[nH]c(C(=O)NC(CO)c2cccc(C(F)(F)F)c2)c1` (centres unmarked) [III-a-200, 4-[2-(2-Chloro-phenylamino)-5-methyl-pyrimidin-4-yl]-1H-pyrrole-2-carboxylic acid [2-hydroxy-1-(3-trifluoromethyl-phenyl)-ethyl]-amide], in that order: > 1000 nM and < 100 nM.
Consider `Cc1cnc(NC(CO)c2ccccc2)nc1-c1c[nH]c(C(=O)NC(CO)c2cccc(C(F)(F)F)c2)c1` (centres unmarked) [III-a-201, 4-[2-(2-Hydroxy-1-phenyl-ethylamino)-5-methyl-pyrimidin-4-yl]-1H-pyrrole-2-carboxylic acid [2-hydroxy-1-(3-trifluoromethyl-phenyl)-ethyl)-amide], for which the results for the inhibition constant Ki on GSK-3β (AA 1–420) and on ERK2 were 100 to 1000 nM and < 100 nM, respectively.
With `COc1ccccc1C(CO)NC(=O)c1cc(-c2nc(NC3CC3)ncc2C)c[nH]1` (centres unmarked) [III-a-203, 4-(2-Cyclopropylamino-5-methyl-pyrimidin-4-yl)-1H-pyrrole-2-carboxylic acid [2-hydroxy-1-(2-methoxy-phenyl)-ethyl]-amide], the Ki at GSK-3β (AA 1–420) is 100 to 1000 nM; at ERK2 it was < 100 nM.
The matching figures for `CONc1ncc(C)c(-c2c[nH]c(C(=O)NC(CO)c3ccccc3)c2)n1` (centres unmarked) [III-a-206, 4-(2-Methoxyamino-5-methyl-pyrimidin-4-yl)-1H-pyrrole-2-carboxylic acid (2-hydroxy-1-phenyl-ethyl)-amide]: < 100 nM and < 100 nM.
With `Cc1cnc(NOC(C)C)nc1-c1c[nH]c(C(=O)NC(CO)c2ccccc2)c1` (centres unmarked) [III-a-207, 4-(2-Isopropoxyamino-5-methyl-pyrimidin-4-yl)-1H-pyrrole-2-carboxylic acid (2-hydroxy-1-phenyl-ethyl)-amide], the Ki was 100 to 1000 nM on GSK-3β (AA 1–420) and < 100 nM on ERK2.
Consider `Cc1cccc(C(CO)NC(=O)c2cc(-c3nc(Nc4cccc(N(C)C)c4)ncc3C)c[nH]2)c1` (centres unmarked) [III-a-208], for which the Ki at GSK-3β (AA 1–420) and on ERK2 was < 100 nM each time.
For the compound `Cc1cccc(C(CO)NC(=O)c2cc(-c3nc(Nc4ccccc4Cl)ncc3C)c[nH]2)c1` (centres unmarked) [III-a-209, 4-[2-(2-Chloro-phenylamino)-5-methyl-pyrimidin-4-yl]-1H-pyrrole-2-carboxylic acid (2-hydroxy-1-m-tolyl-ethyl)-amide], the Ki on GSK-3β (AA 1–420) and at ERK2 was < 100 nM each time.
Regarding `Cc1cccc(C(CO)NC(=O)c2cc(-c3nc(NC(CO)c4ccccc4)ncc3C)c[nH]2)c1` (centres unmarked) [III-a-210, 4-[2-(2-Hydroxy-1-phenyl-ethylamino)-5-methyl-pyrimidin-4-yl]-1H-pyrrole-2-carboxylic acid (2-hydroxy-1-m-tolyl-ethyl)-amide], the inhibition constant Ki was > 1000 nM at GSK-3β (AA 1–420) and < 100 nM at ERK2.
On to `Cc1cccc(C(CO)NC(=O)c2cc(-c3nc(Nc4cccc(C)c4C)ncc3C)c[nH]2)c1` (centres unmarked) [III-a-211, 4-[2-(2,3-Dimethyl-phenylamino)-5-methyl-pyrimidin-4-yl]-1H-pyrrole-2-carboxylic acid (2-hydroxy-1-m-tolyl-ethyl)-amide], for which the Ki on GSK-3β (AA 1–420) is 100 to 1000 nM; at ERK2, < 100 nM.
Consider `Cc1cccc(C(CO)NC(=O)c2cc(-c3nc(Nc4cccc(F)c4)ncc3C)c[nH]2)c1` (centres unmarked) [III-a-212, 4-[2-(3-Fluoro-phenylamino)-5-methyl-pyrimidin-4-yl]-1H-pyrrole-2-carboxylic acid (2-hydroxy-1-m-tolyl-ethyl)-amide], for which the Ki on GSK-3β (AA 1–420) and at ERK2 was < 100 nM in each case.
Consider `CC(=O)Nc1ncc(C)c(-c2c[nH]c(C(=O)NC(CO)c3ccccc3)c2)n1` (centres unmarked) [III-a-213, 4-(2-Acetylamino-5-methyl-pyrimidin-4-yl)-1H-pyrrole-2-carboxylic acid (2-hydroxy-1-phenyl-ethyl)-amide], for which the Ki is 100 to 1000 nM at GSK-3β (AA 1–420) and < 100 nM at ERK2.
Consider `Cc1cnc(Nc2cccnc2)nc1-c1c[nH]c(C(=O)NC(CO)c2ccccc2)c1` (centres unmarked) [III-a-215, 4-[5-Methyl-2-(pyridin-3-ylamino)-pyrimidin-4-yl]-1H-pyrrole-2-carboxylic acid (2-hydroxy-1-phenyl-ethyl)-amide], for which the Ki at GSK-3β (AA 1–420) and on ERK2 was < 100 nM throughout.
As for `Cc1cnc(NCC2CCCO2)nc1-c1c[nH]c(C(=O)NC(CO)c2ccccc2)c1` (centres unmarked) [III-a-216, 4-{5-Methyl-2-[(tetrahydro-furan-2-ylmethyl)-amino]-pyrimidin-4-yl}-1H-pyrrole-2-carboxylic acid (2-hydroxy-1-phenyl-ethyl)-amide], the Ki on GSK-3β (AA 1–420) and on ERK2 was < 100 nM in each case.
Regarding `Cc1cnc(NCC2CCCO2)nc1-c1c[nH]c(C(=O)NC(CO)c2ccccc2)c1` (centres unmarked) [III-a-217, 4-{5-Methyl-2-((tetrahydro-furan-2-ylmethyl)-amino]-pyrimidin-4-yl}-1H-pyrrole-2-carboxylic acid (2-hydroxy-1-phenyl-ethyl)-amide], the inhibition constant (Ki) at GSK-3β (AA 1–420) and at ERK2 was < 100 nM in each case.
In the case of `Cc1cccc(C(CO)NC(=O)c2cc(-c3nc(NC(C)CO)ncc3C)c[nH]2)c1` (centres unmarked) [III-a-222, 4-[2-(2-Hydroxy-1-methyl-ethylamino)-5-methyl-pyrimidin-4-yl]-1H-pyrrole-2-carboxylic acid (2-hydroxy-1-m-tolyl-ethyl)-amide], the results for the Ki at GSK-3β (AA 1–420) and on ERK2 were 100 to 1000 nM and < 100 nM, respectively.
In the case of `Cc1cccc(C(CO)NC(=O)c2cc(-c3nc(Nc4ccccc4C)ncc3C)c[nH]2)c1` (centres unmarked) [III-a-223, 4-(5-Methyl-2-o-tolylamino-pyrimidin-4-yl)-1H-pyrrole-2-carboxylic acid (2-hydroxy-1-m-tolyl-ethyl)-amide], the Ki at GSK-3β (AA 1–420) and at ERK2 was < 100 nM in each case.
As to `Cc1cnc(NOCCO)nc1-c1c[nH]c(C(=O)NC(CO)c2ccccc2)c1` (centres unmarked) [III-a-225, 4-[2-(2-Hydroxy-ethoxyamino)-5-methyl-pyrimidin-4-yl]-1H-pyrrole-2-carboxylic acid (2-hydroxy-1-phenyl-ethyl)-amide], the Ki at GSK-3β (AA 1–420) and on ERK2 was < 100 nM each time.
As to `Cc1cnc(NC(CO)c2ccc(F)c(Cl)c2)nc1-c1c[nH]c(C(=O)NC(CO)c2ccccc2)c1` (centres unmarked) [III-a-230, 4-{2-[1-(3-Chloro-4-fluoro-phenyl)-2-hydroxy-ethylamino]-5-methyl-pyrimidin-4-yl}-1H-pyrrole-2-carboxylic acid (2-hydroxy-1-phenyl-ethyl)-amide], the inhibition constant Ki at GSK-3β (AA 1–420) is 100 to 1000 nM; at ERK2 it was < 100 nM.
In the case of `CCC(CO)Nc1ncc(C)c(-c2c[nH]c(C(=O)NC(CO)c3cccc(Cl)c3)c2)n1` (centres unmarked) [III-a-232, 4-[2-(1-Hydroxymethyl-propylamino)-5-methyl-pyrimidin-4-yl]-1H-pyrrole-2-carboxylic acid (1-(3-chloro-phenyl)-2-hydroxy-ethyl]-amide], the Ki at GSK-3β (AA 1–420) was 100 to 1000 nM; at ERK2, < 100 nM.
On to `Cc1cnc(NC(CO)CO)nc1-c1c[nH]c(C(=O)NC(CO)c2cccc(Cl)c2)c1` (centres unmarked) [III-a-233, 4-[2-(2-Hydroxy-1-hydroxymethyl-ethylamino)-5-methyl-pyrimidin-4-yl]-1H-pyrrole-2-carboxylic acid [1-(3-chloro-phenyl)-2-hydroxy-ethyl]-amide], for which the Ki on GSK-3β (AA 1–420) is > 1000 nM; on ERK2, < 100 nM.
